From patent US20230204598A1, “MAM-SPECIFIC FLUORESCENCE MARKER AND USE THEREOF” (POSTECH ACADEMY-INDUSTRY FOUNDATION, priority 2016, published 2023)

System: MAM structure in HEK293 cells
Assay: Verification of MAM specificity of the fluorescent marker using a drug (MAM suppressor)
Format: cell-based
Conditions: HEK293 cells transfected with the MAM-specific bimolecular fluorescent marker; 150 μM added to the cell culture solution; incubated for 3 or 24 hours; fluorescence microscope (FIG. 7)
Protocol: HEK293 cells transfected in Example 4-1 were incubated in DMEM containing a 10% fetal bovine serum (FBS) for 24 hours under conditions of 37° C. and 5% CO2. Afterward, the culture solution was washed with PBS, and then cells were fixed by treatment with a 4% para-formaldehyde cell fixing solution for 10 minutes. The cell fixing solution was sufficiently washed with PBS, and a cover glass was immobilized on a slide glass using a mounting solution, thereby manufacturing a microscope sample. […]
The MAM-specific bimolecular fluorescent marker was transfected into HEK293 cells in the same manner as in Example 5-1, 150 μM of methyl-β-cyclodextrin known as a MAM suppressor was added to the cell culture solution, and the cells were incubated for 3 or 24 hours under cell culture conditions, thereby manufacturing a microscope sample, and then the microscope sample was observed using a fluorescence microscope.

## methyl-β-cyclodextrin
  fluorescence level of the MAM-specific fluorescent marker: significantly reduced
